Data from patent US20140072624A1, “UNIT DOSE FORM FOR ORAL ADMINISTRATION” (THRESHOLD PHARMACEUTICALS, INC., priority 2011, published 2014).
Where two headings read alike, the source gives them in different places.

Key:
[1] = Single dose pharmacokinetics of TH-302 after a 30-min intravenous infusion in rats; type: in vivo; conditions: for Vd: read-out: Vss
[2] = Pharmacokinetics of TH-302 in rats after a single oral (PO) dose; type: in vivo, Sprague-Dawley rats
Description: TH-302 (1-methyl-2-nitro-1H-imidazole-5-yl) N,N′-bis(2-bromoethyl) diamidophosphate, m.w.=449) that was about 96% pure based on high performance liquid chromatography (HPLC) analysis, was used. Male Sprague-Dawley rats (n=3 per time point) were administered a single oral dose of 100 mg/kg TH-302 (see, Table 1 and FIG. 1).

[3] = Pharmacokinetics of TH-302 in rats after a single IV dose; type: in vivo, Sprague-Dawley rats; conditions: rat; for Tmax: Sprague-Dawley, plasma
[4] = Sprague-Dawley, rat, plasma, female rats, 50 mg/kg, 30-min IV infusion
[5] = Sprague-Dawley, rat, plasma, female rats, 100 mg/kg, 30-min IV infusion
[6] = Sprague-Dawley, rat, plasma, male rats, 50 mg/kg, 30-min IV infusion
[7] = Sprague-Dawley, rat, plasma, male rats, 100 mg/kg, 30-min IV infusion
[8] = Sprague-Dawley, rat, plasma, male rats, 200 mg/kg, 30-min IV infusion
[9] = male rats, 100 mg/kg, 30-min IV infusion
[10] = rat, plasma, female rats, 200 mg/kg, 30-min IV infusion
[11] = male Sprague-Dawley rats, single oral dose 100 mg/kg in normal saline
[12] = rat, PO, 100 mg/kg, composite data, n = 3 per time point

For Cn1c(COP(=O)(NCCBr)NCCBr)cnc1[N+](=O)[O-] [TH-302], the Cmax [1, 4] was 14100 ng/mL, the Tmax [1, 4] was 31 min and the clearance [1, 4] was 115 mL/min/kg. The Vd [1, 4] was 2.81 L/kg, the Cmax [1, 5] was 30000 ng/mL and the Tmax [1, 5] was 30 min. It also gave a clearance [1, 5] of 103 mL/min/kg, a Vd [1, 5] of 2.59 L/kg and a Vd ([1]; Sprague-Dawley, rat, plasma, female rats, 200 mg/kg, 30-min IV infusion) of 2.35 L/kg. It also gave a Cmax [1, 6] of 15600 ng/mL, a Tmax [1, 6] of 31 min and a clearance [1, 6] of 104 mL/min/kg. The Vd [1, 6] was 2.57 L/kg, the Tmax [1, 7] was 33 min and the clearance [1, 7] was 98.3 mL/min/kg. The Cmax ([1]; Sprague-Dawley, rat, plasma, male rats, 100 mg/kg, 30-min IV infusion (end of infusion)) was 30900 ng/mL, the Vd [1, 7] was 2.59 L/kg and the Cmax [1, 8] was 62500 ng/mL. For the same compound, the Tmax [1, 8] was 33 min, the clearance [1, 8] was 89.7 mL/min/kg and the Vd [1, 8] was 2.51 L/kg. It also gave an AUC ([1]; female, Sprague-Dawley, rat, plasma, iv, 50 mg/kg, female rats, 50 mg/kg, 30-min IV infusion, read-out: AUC) of 7330 ng·h/mL, a half-life ([1]; female, Sprague-Dawley, rat, plasma, iv, 50 mg/kg, female rats, 50 mg/kg, 30-min IV infusion, read-out: Half-Life (converted)) of 19.1 min and an AUC ([1]; female, Sprague-Dawley, rat, plasma, iv, 100 mg/kg, female rats, 100 mg/kg, 30-min IV infusion, read-out: AUC) of 16100 ng·h/mL. For the same compound, the half-life ([1]; female, Sprague-Dawley, rat, plasma, iv, 100 mg/kg, female rats, 100 mg/kg, 30-min IV infusion, read-out: Half-Life (converted)) was 17.2 min, the AUC ([1]; female, rat, plasma, iv, 200 mg/kg, female rats, 200 mg/kg, 30-min IV infusion, read-out: AUC) was 40600 ng·h/mL and the half-life ([1]; female, rat, plasma, iv, 200 mg/kg, female rats, 200 mg/kg, 30-min IV infusion, read-out: Half-Life (converted)) was 23.4 min. The AUC [1, 9] was 17000 ng·h/mL, the half-life [1, 9] was 16.1 min and the AUC ([1]; male, Sprague-Dawley, rat, plasma, iv, 50 mg/kg, male rats, 50 mg/kg, 30-min IV infusion, read-out: AUC) was 7940 ng·h/mL. It also gave a half-life ([1]; male, Sprague-Dawley, rat, plasma, iv, 50 mg/kg, male rats, 50 mg/kg, 30-min IV infusion, read-out: Half-Life (converted)) of 20 min, an AUC ([1]; male, Sprague-Dawley, rat, plasma, iv, 100 mg/kg, male rats, 100 mg/kg, 30-min IV infusion, read-out: AUC) of 17100 ng·h/mL and a half-life ([1]; male, Sprague-Dawley, rat, plasma, iv, 100 mg/kg, male rats, 100 mg/kg, 30-min IV infusion, read-out: Half-Life (converted)) of 16.2 min. For the same compound, the AUC ([1]; male, Sprague-Dawley, rat, plasma, iv, 200 mg/kg, male rats, 200 mg/kg, 30-min IV infusion, read-out: AUC) was 37600 ng·h/mL, the half-life ([1]; male, Sprague-Dawley, rat, plasma, iv, 200 mg/kg, male rats, 200 mg/kg, 30-min IV infusion, read-out: Half-Life (converted)) was 19.4 min and the Cmax [1, 10] was 71100 ng/mL. The Tmax [1, 10] was 41 min, the clearance [1, 10] was 80.7 mL/min/kg and the “time of mean peak plasma concentration (first sampled time point)” value ([2]; male Sprague-Dawley rats, single oral dose 100 mg/kg) was 15 min. For the same compound, the “mean peak plasma concentration” value [2, 11] was 15.8 µg/mL, the “time of mean peak plasma concentration (first sampling time point)” value [2, 11] was 0.25 h and the “oral absorption (in words)” value ([2]; male Sprague-Dawley rats, single oral dose 100 mg/kg, 100 mg/kg) was “rapidly and well absorbed”. The t1/2 ([2]; male rat, PO, 100 mg/kg, composite data, n = 3 per time point) was 96 min, the Tmax ([2]; male, Sprague-Dawley, plasma, rat, PO, 100 mg/kg, composite data, n = 3 per time point) was 15 min and the bioavailability ([2]; male, Sprague-Dawley, rat, plasma, oral, 100 mg/kg, male rat, PO, 100 mg/kg vs 100 mg/kg 30 minute IV infusion, read-out: Oral F (absolute oral bioavailability)) was 77.3%. For the same compound, the “AUC (total area under the concentration-time curve from zero to infinity)” value [2, 12] was 13.1 μg-, the Cmax [2, 12] was 15.8 μg/m and the AUC ([2]; rat, plasma, male Sprague-Dawley rats, single oral dose 100 mg/kg, read-out: mean area under the curve (AUC)) was 13100 ng·h/mL. It also gave a Tmax ([3]; 1 mg/kg, n = 3, mean ± S.D.) of 1.98 min, a Tmax ([3]; 5 mg/kg, n = 2, mean ± S.D.) of 1.98 min and a Tmax ([3]; 20 mg/kg, n = 3, mean ± S.D.) of 1.98 min. For the same compound, the Tmax ([3]; 50 mg/kg, n = 3, mean ± S.D.) was 1.98 min, the “AUC (total area under the concentration-time curve from zero to infinity)” value ([3]; 1 mg/kg, n = 3, mean ± S.D.) was 0.221 ± 0.054 μg- and the Cmax ([3]; 1 mg/kg, n = 3, mean ± S.D.) was 0.802 ± 0.165 μg/m. For the same compound, the “AUC (total area under the concentration-time curve from zero to infinity)” value ([3]; 5 mg/kg, n = 2) was 0.826 μg-, the Cmax ([3]; 5 mg/kg, n = 2) was 3.82 μg/m and the “AUC (total area under the concentration-time curve from zero to infinity)” value ([3]; 20 mg/kg, n = 3, mean ± S.D.) was 3.30 ± 0.36 μg-. The Cmax ([3]; 20 mg/kg, n = 3, mean ± S.D.) was 13.5 ± 1.52 μg/m, the “AUC (total area under the concentration-time curve from zero to infinity)” value ([3]; 50 mg/kg, n = 3, mean ± S.D.) was 8.47 ± 0.02 μg- and the Cl ([3]; 50 mg/kg, n = 3, mean ± S.D.) was 98.5 ± 4.17 mL/min/kg. For the same compound, the Cmax ([3]; 50 mg/kg, n = 3, mean ± S.D.) was 35.5 ± 3.01 μg/m and the Vss ([3]; 50 mg/kg, n = 3, mean ± S.D.) was 1.67 ± 0.04 L/kg.
